In US20150025119A1, “Release Application for Antihypertensive Agent on Plant Fiber Bundle” (National Tsing Hua University, priority 2013, published 2015):

Test: Release of Valsartan from plant fiber bundle base (toothpick) in physiological saline, fluorescence analysis
Assay type: physicochemical
Conditions: toothpick impregnated at 10 mg/mL, released in physiological saline for 1, 3, 5, 10 minutes, 38 repetitions, FIG. 4
From the text: Firstly, in step 100, antihypertensive agents are fixed onto a plant fiber bundle base such as a toothpick, i.e., solid antihypertensive agents attached onto the plant fiber bundle base. In this step, the plant fiber bundle base may be impregnated in liquid antihypertensive agents. Because of the physical adsorption properties of plant fiber bundles, the composition of the liquid antihypertensive agents is gradually adsorbed into the plant fiber bundles until the amount of antihypertensive agents on plant fiber bundle base reaches a saturated condition. In one embodiment, the concentration of antihypertensive agents (e.g., Valsartan) in liquid form is 2.5, 5, 8, 10, 20 mg/mL, respectively. Then, the plant fiber bundle base is removed. […] Next, in step 102, fluorescence analysis of the released anti-hypertensive agents is performed. […] Based on this feature, an optical instrument is used for fluorescence analysis of different concentrations of Valsartan affixed to toothpicks. Fluorescence analysis of different concentrations of Valsartan was performed using ImageJ image analysis software. […] An optical instrument is used to collect fluorescence data of Valsartan after release in physiological saline in 38 repetitions of the experiment. […]

Question: For `CCCCC(=O)N(Cc1ccc(-c2ccccc2-c2nnn[nH]2)cc1)[C@H](C(=O)O)C(C)C` [Valsartan], which “proportion of release (release percentage) of Valsartan over time” value is on record?
Answer: The value was “increases until the saturation level is reached”.
